Results on one substance are retold here after patent publication EP2758042B1, “STABLE, LOW-TOXICITY, STERILIZABLE COMPOSITION FOR OPHTHALMIC DYING” (Arcadophta, priority 2011, dated 2013).

Data set [1] concerns cellules rétiniennes épithéliales ARPE-19. Description: Cytolysis after 30 min or 5 min exposure (Example 4). It counts as cell-based. How it is done: (§1) Dans cet essai, on évalue également l'influence de la présence d'eau lourde dans les solutions sur leur cytotoxicité vis-à-vis de cellules rétiniennes épithéliales ARPE-19 fournies par ATCC, dans les mêmes conditions générales que dans l'exemple 1.
(§2) Les cellules sont exposées aux solutions 30 minutes dans une première série d'essais, et cinq minutes dans une deuxième série d'essais. Des mesures de cytolyse sont réalisées 1,5 h et 48 h après ce traitement.
(§3) Les mêmes mesures sont effectuées à titre de comparaison sur composition de Monoblue® 0,15% commercialisée par la société Arcadophta, Toulouse, France, sur une solution d'eau oxygénée 100mM et sur une solution saline d'irrigation intraoculaire (BSS).

The test system is the same in data set [2]. Description: Number of cells after exposure (Example 4). Format: cell-based. How it is done: as §1, §2, §3
Where [3] appears, read: Exposition 5 min, culture 48 h après exposition.
The mark [4] stands for this setting: Exposition 30 min, culture 1 h30 après exposition.

On to eau oxygénée [H2O2 100mM], for which the entries for the “% Cellules cytolysées Moyenne” value in data set [1] (setting [3]) and in data set [1] (setting [4]) were 88,3% and 73,63%, respectively. Moreover, the “Nombre de cellules Moyenne” value in data set [2] (setting [3]) was 129,00; in data set [2] (setting [4]), 29,33.
